Article PMC12073402, “A Selective MAP3K1 Inhibitor Facilitates Discovery of NPM1 as a Member of the Network” (Molecules, 2025)

What was measured:
Test in all cases: KiNativ kinome profiling in PANC-1 lysate
Assay type in all cases: binding
[1] = target: T1, CDC2 (Homo sapiens, UniProt P06493)
T1 construct: endogenous in cells; host or cells: PANC-1 cell lysate
Summary of the method: (§1)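 PANC-1 lysates were incubated with 5 μM inhibitor or DMSO, then labeled with a desthiobiotin-ATP acyl-phosphate probe that biotinylates conserved kinase lysines. Tryptic peptides were streptavidin-enriched and quantified by LC-MS/MS, reported as % change in MS signal from duplicate treated and duplicate control samples.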

[2] = target: T2, CaMK2g (Homo sapiens, UniProt Q13555); conditions: Lys1
T2 construct: endogenous in cells; host or cells: PANC-1 cell lysate
Summary of the method: as §1

[3] = target: T3, FAM20B (Homo sapiens, UniProt O75063); conditions: ATP
T3 construct: endogenous in cells; host or cells: PANC-1 lysate
Summary of the method: as §1

[4] = target: T4, GSK3A (Homo sapiens, UniProt P49840); conditions: Lys2
T4 construct: we opted to conduct a kinome screen (KiNativ) in PANC-1 cell lysates; endogenous in cells; host or cells: PANC-1 cell lysate
Summary of the method: as §1

[5] = target: T5, HCK (Homo sapiens, UniProt P08631)
T5 construct: we opted to conduct a kinome screen (KiNativ) in PANC-1 cell lysates; endogenous in cells; host or cells: PANC-1 cell lysate
Summary of the method: as §1

[6] = target: T6, MAP2K3 (Homo sapiens, UniProt P46734)
T6 construct: endogenous in cells; host or cells: PANC-1 cell lysate
T6 sequence (P46734 1-347): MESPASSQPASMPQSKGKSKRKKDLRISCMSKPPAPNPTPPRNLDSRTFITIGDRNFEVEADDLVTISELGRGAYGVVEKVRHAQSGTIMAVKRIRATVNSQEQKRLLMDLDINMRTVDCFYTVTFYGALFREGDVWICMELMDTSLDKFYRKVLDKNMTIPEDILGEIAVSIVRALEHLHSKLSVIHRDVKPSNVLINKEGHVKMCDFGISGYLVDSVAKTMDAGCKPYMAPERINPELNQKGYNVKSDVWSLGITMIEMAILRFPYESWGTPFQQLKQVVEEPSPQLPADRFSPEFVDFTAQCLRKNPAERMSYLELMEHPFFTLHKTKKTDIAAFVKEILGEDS
Summary of the method: as §1

[7] = target: T7, MAP3K1 (Homo sapiens, UniProt Q13233)
T7 construct: endogenous in cells; host or cells: PANC-1 cell lysate
Summary of the method: as §1

[8] = target: T8, MAP3K2 (Homo sapiens, UniProt Q9Y2U5); conditions: Lys1
T8 construct: endogenous in cells; host or cells: PANC-1 cell lysate
Summary of the method: as §1

[9] = target: T9, MLK4 (Homo sapiens, UniProt Q5TCX8); conditions: Lys2
T9 construct: endogenous in cells; host or cells: PANC-1
Summary of the method: as §1

[10] = target: T10, MST1 (Homo sapiens, UniProt Q13043); conditions: Lys1
T10 construct: endogenous in cells; host or cells: PANC-1
Summary of the method: as §1

[11] = tested on: MST1, MST2; conditions: 5 µM
Summary of the method: as §1

[12] = tested on: MST3, MST4, YSK1; conditions: 5 µM; ATP Loop; LADFGVAGQLTDTQIKR
Summary of the method: as §1

[13] = tested on: MST4, YSK1; conditions: 5 µM; Lys2; DIKAANVLLSEQGDVK
Summary of the method: as §1

[14] = target: T11, NEK1 (Homo sapiens, UniProt Q96PY6)
T11 construct: endogenous in cells; host or cells: PANC-1 cell lysate
Summary of the method: as §1

[15] = target: T12, PCTAIRE2 (Homo sapiens, UniProt Q00537); conditions: Lys2
T12 construct: endogenous in cells; host or cells: PANC-1 cell lysate
Summary of the method: as §1

[16] = target: T13, PKD1 (Homo sapiens, UniProt Q15139); conditions: Lys1
T13 construct: endogenous in cells; host or cells: PANC-1 cell lysate
Summary of the method: as §1

[17] = tested on: RSK1 domain1, RSK2 domain1, RSK3 domain1; conditions: 5 µM; Lys2; DLKPENILLDEEGHIK
Summary of the method: as §1

[18] = tested on: Wnk1, Wnk2, Wnk4; conditions: 5 µM; ATP Loop; IGDLGLATLKR
Summary of the method: as §1

[19] = target: T14, p38a (Homo sapiens, UniProt Q16539)
T14 construct: endogenous in cells; host or cells: PANC-1 cell lysate
Summary of the method: as §1

[20] = target: T15, p38b (Homo sapiens, UniProt Q15759); conditions: Other
T15 construct: endogenous in cells; host or cells: PANC-1 cell lysate
Summary of the method: as §1

T1 sequence (P06493 whole entry): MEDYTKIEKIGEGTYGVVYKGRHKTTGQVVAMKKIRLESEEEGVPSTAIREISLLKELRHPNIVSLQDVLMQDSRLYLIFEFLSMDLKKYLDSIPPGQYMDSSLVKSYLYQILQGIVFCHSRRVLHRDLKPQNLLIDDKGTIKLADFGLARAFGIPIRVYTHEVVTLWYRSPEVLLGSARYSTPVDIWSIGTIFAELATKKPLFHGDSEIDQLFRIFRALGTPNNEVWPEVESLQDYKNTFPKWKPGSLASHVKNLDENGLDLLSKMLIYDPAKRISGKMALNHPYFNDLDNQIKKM
T7 sequence (Q13233 whole entry): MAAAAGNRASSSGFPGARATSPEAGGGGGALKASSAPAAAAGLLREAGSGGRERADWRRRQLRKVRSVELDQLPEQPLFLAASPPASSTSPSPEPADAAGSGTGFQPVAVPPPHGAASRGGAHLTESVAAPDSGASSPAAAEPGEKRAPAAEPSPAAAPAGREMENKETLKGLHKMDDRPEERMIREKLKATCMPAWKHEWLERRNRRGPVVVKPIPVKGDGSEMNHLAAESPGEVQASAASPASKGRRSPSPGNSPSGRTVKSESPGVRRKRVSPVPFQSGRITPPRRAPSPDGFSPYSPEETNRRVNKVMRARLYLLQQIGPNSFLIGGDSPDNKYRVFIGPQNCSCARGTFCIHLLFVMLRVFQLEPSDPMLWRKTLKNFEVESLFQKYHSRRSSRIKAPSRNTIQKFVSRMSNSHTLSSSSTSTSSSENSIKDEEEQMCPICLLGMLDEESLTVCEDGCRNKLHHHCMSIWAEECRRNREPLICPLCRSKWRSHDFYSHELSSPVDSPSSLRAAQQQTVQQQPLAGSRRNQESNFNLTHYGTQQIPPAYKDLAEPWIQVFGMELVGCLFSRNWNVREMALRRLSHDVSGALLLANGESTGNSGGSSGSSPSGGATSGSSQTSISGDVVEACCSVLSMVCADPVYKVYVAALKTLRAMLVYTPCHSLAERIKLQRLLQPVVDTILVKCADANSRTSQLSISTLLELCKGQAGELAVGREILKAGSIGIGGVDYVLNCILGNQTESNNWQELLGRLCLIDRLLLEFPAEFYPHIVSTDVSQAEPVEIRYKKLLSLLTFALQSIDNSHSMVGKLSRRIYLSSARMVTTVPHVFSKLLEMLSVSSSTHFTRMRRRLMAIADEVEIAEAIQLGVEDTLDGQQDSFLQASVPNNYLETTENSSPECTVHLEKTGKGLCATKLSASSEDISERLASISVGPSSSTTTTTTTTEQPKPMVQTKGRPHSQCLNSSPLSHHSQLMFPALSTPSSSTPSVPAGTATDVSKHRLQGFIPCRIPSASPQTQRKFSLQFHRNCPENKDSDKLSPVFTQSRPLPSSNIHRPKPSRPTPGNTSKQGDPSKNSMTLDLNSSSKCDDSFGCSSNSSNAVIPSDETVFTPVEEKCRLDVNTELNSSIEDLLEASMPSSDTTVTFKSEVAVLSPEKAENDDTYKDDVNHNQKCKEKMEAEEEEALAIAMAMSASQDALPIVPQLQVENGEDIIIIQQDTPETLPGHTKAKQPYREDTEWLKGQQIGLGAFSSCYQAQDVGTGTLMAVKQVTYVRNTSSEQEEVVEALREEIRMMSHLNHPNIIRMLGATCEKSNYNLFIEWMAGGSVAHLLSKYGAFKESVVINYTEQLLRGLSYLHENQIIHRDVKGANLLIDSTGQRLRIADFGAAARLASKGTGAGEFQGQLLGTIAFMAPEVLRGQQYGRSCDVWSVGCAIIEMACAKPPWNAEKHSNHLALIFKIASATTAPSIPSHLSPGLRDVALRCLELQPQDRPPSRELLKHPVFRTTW
T14 sequence (Q16539 whole entry): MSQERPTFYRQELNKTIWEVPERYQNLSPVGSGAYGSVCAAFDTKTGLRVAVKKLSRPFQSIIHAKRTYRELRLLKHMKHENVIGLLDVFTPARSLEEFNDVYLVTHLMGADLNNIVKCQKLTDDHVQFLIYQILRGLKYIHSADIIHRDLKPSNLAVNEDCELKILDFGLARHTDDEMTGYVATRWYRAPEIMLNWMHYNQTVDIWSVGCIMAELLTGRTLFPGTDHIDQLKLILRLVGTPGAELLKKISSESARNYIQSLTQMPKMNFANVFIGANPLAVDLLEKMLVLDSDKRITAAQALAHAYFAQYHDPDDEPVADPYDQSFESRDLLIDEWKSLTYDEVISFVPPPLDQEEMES
T5 sequence (P08631 whole entry): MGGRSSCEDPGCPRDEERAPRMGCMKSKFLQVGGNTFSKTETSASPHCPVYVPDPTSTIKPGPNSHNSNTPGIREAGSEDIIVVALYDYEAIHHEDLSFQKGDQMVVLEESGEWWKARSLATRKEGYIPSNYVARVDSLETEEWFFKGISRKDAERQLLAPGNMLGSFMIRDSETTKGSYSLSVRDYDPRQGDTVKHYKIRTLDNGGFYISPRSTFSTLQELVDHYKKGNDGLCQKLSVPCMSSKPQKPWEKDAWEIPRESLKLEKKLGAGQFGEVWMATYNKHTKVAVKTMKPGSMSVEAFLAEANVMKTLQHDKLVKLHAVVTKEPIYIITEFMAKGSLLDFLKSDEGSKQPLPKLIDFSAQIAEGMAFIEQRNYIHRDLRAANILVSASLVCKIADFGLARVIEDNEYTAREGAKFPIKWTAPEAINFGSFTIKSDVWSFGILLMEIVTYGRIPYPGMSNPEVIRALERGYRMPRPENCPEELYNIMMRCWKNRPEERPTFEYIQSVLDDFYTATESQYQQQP
T11 sequence (Q96PY6 whole entry): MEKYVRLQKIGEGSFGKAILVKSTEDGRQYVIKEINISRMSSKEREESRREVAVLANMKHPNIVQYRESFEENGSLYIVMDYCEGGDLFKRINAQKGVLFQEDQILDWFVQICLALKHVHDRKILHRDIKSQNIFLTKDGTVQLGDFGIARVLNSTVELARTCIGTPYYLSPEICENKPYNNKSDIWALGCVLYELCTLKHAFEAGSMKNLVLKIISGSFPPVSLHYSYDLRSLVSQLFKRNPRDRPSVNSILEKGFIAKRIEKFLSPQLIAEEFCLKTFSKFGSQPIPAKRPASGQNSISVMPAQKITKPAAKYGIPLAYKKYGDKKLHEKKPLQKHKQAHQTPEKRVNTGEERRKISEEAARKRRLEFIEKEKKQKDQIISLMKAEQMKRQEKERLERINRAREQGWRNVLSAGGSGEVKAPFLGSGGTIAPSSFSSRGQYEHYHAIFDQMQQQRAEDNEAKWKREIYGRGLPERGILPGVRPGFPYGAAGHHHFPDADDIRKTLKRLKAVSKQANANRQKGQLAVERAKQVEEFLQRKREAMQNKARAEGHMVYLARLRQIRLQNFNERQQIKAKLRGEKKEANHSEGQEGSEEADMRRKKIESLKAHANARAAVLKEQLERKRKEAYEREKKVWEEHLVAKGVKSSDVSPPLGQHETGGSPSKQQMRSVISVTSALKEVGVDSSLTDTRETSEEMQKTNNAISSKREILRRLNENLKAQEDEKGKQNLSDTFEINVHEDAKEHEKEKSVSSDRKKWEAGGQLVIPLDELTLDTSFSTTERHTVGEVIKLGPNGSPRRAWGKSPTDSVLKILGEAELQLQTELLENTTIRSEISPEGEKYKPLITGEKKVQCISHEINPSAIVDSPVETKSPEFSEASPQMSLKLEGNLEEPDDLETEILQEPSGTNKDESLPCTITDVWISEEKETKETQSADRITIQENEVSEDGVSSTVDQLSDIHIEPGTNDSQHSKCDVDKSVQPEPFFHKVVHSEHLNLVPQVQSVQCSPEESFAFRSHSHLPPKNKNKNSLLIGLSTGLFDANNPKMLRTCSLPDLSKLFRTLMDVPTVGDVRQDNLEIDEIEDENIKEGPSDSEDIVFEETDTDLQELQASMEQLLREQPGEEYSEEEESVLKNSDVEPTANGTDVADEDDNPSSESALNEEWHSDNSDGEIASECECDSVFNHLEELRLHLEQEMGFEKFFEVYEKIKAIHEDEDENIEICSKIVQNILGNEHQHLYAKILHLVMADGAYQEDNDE
T13 sequence (Q15139 whole entry): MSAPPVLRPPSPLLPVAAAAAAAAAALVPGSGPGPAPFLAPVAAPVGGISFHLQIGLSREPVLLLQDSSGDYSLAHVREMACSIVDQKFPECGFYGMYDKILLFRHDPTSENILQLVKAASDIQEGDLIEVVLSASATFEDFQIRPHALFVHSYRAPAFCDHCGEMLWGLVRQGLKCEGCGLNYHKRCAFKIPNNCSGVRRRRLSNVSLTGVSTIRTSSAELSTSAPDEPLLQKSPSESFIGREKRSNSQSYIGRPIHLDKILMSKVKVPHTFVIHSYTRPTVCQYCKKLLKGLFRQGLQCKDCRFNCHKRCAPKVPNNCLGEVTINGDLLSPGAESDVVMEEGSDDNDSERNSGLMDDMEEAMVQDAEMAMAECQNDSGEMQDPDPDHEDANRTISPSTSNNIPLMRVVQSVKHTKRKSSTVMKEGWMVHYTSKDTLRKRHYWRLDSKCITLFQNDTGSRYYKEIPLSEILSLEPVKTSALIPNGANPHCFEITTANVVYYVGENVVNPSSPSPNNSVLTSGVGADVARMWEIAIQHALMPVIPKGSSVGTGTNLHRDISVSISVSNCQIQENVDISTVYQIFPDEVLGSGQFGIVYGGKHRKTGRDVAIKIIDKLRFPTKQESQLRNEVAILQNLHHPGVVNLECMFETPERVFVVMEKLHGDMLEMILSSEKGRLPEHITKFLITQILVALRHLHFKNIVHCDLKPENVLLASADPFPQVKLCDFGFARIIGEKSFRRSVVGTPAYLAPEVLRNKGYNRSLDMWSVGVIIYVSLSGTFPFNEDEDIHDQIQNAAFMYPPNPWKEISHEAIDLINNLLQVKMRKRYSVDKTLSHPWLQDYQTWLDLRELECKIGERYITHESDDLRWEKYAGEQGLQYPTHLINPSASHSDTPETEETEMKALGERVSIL

## Cn1cc(-c2cnc3ccc(NC(=O)Nc4ccc(F)c(C(F)(F)F)c4)cc3n2)cn1 [51-106, 1-(4-Fluoro-3-(trifluoromethyl)phenyl)-3-(3-(1-methyl-1H-pyrazol-4-yl)quinoxalin-6-yl)urea]
[1]; Lys1, TTGQVVAMKK
  inhibition at 5 µM: 20.3%
[1]; Lys2, DLKPQNLLIDDK
  inhibition at 5 µM: ≤ 0%
[1]; Protein Kinase Domain, KPLFHGDSEIDQLFR
  inhibition at 5 µM: ≤ 0%
[2]
  inhibition at 5 µM: 7.1%
[3]
  inhibition at 5 µM: 6.6%
[4]
  inhibition at 5 µM: ≤ 0%
[5]; 5 µM, ATP Loop, EGAKFPIKWTAPEAINFGSFTIK
  % Inhibition: NB (NB = No Binding (≤ 0))
[5]; Lys1, […]
  inhibition at 5 µM: ≤ 0%
[6]; ATP Loop, MCDFGISGYLVDSVAKTMDAGCKPYMAPER
  inhibition at 5 µM: ≤ 0%
[6]; Lys1, HAQSGTIMAVKR
  inhibition at 5 µM: ≤ 0%
[6]; Lys2, DVKPSNVLINK
  inhibition at 5 µM: 18.5%
[7]; 5 μM, 328 quantified kinases
  MAP3K1 inhibition compared to any other kinase in the panel: 2.5 fold
[7]; 5 µM, Lys2, DVKGANLLIDSTGQR
  % Inhibition: 78%
  inhibition at 5 µM: 78.1%
[8]
  inhibition at 5 µM: ≤ 0%
[9]
  inhibition at 5 µM: ≤ 0%
[10]
  inhibition at 5 µM: ≤ 0%
[11]; ATP Loop, LADFGVAGQLTDTMAKR
  % Inhibition: 2.7%
[11]; Lys2, DIKAGNILLNTEGHAK
  % Inhibition: NB (NB = No Binding (≤ 0))
[12]
  % Inhibition: NB (NB = No Binding (≤ 0))
[13]
  % Inhibition: 12.8%
[14]; 5 µM, Lys1, QYVIKEINISR
  % Inhibition: NB (NB = No Binding (≤ 0))
[14]; Lys2, […]
  inhibition at 5 µM: ≤ 0%
[15]
  inhibition at 5 µM: 9.7%
[16]
  inhibition at 5 µM: ≤ 0%
[17]
  % Inhibition: NB (NB = No Binding (≤ 0))
[18]
  % Inhibition: 4.6%
[19]; Lys2, DLKPSNLAVNEDCELK
  inhibition at 5 µM: ≤ 0%
[19]; Other, QELNKTIWEVPER
  inhibition at 5 µM: 7.5%
[20]
  inhibition at 5 µM: ≤ 0%
